The text below walks through data of publication PMC4201977 (Journal of immunology (Baltimore, Md. : 1950), 2014).

Ends that are not written are not given here.

One series relates to monocyte-derived DCs. Nature of the series: Proteolytic activities in live DCs upon TLR ligand maturation. Type of series: cell-based, human.
Series [1] in a line: Cytosolic stability of optimal epitopes in iMP extracts. In kind it is in vitro ADME. The settings on record: human, iMP cytosolic extract, pH 7.4.
The nature of series [2]: Cytosolic stability of optimal epitopes in iDC extracts. In kind it is in vitro ADME. The settings on record: human, iDC cytosolic extract, pH 7.4.
Setting [3] is: 24h post stimulation, maturing over immature cells, n=2 donors.

Turning to `CCOCc1nc2c([nH]1)c(N)nc1ccccc12` [CL097], in the series on monocyte-derived DCs (5h, 24h, 48h post stimulation), the “change of aminopeptidases hydrolytic activities in maturing DCs” value is “unchanged” and the “change of chymotryptic activities in maturing DCs” value is recorded as “not affected”. In addition, in the series on monocyte-derived DCs (setting [3]), the “decrease of proteasomal caspase-like activity in maturing DCs” value is 30% and the “decrease of proteasomal tryptic activity in maturing DCs” value is on record as 30%.

On to `CC[C@H](C)[C@H](NC(=O)[C@@H](NC(=O)[C@H](CCC(=O)O)NC(=O)[C@@H]1CCCN1C(=O)[C@H](CO)NC(=O)[C@H](Cc1ccccc1)NC(=O)[C@H](C)NC(=O)[C@@H](N)CCCCN)C(C)C)C(=O)N1CCC[C@H]1C(=O)N[C@@H](CCSC)C(=O)N[C@@H](Cc1ccccc1)C(=O)O` [KF11], for which the half-life (commonly the time in which the quantity being followed falls by half) in series [1] came out at 20.4 min; in series [2], 22.1 min.

Take ISPRTLNAW [ISW9]: the results for the half-life in series [1] and in series [2] were 9.4 min and 7 min, respectively.
